Test results: PubChem BioAssay AID328 (DTP/NCI, 2004)
Where “and” joins values, the source holds several entries; their conditions need not be identical. Identical values can stand only once. Toxic doses and inconclusive results are not listed.

Test system: BDF1 mice, P388 leukemia ip, median survival T/C
Assay: NCI In Vivo Anticancer Drug Screen. Data for tumor model P388 Leukemia (intraperitoneal) in B6D2F1 (BDF1) mice
Conditions: endpoint: median survival time, higher = longer survival
In short: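 Steps: implant the tumour, treat one group with compound and another with vehicle, record survival, then divide treated by control.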

[1] = dose: 25.0 mg/kg/injection, schedule: Q01DX009 (ip), vehicle: saline with Tween-80
[2] = dose: 50.0 mg/kg/injection, schedule: Q01DX009 (ip), vehicle: saline with Tween-80
[3] = dose: 100.0 mg/kg/injection, schedule: Q01DX009 (ip), vehicle: saline with Tween-80
[4] = dose: 50.0 mg/kg/injection, schedule: Q04DX003 (ip), vehicle: saline with Tween-80
[5] = dose: 100.0 mg/kg/injection, schedule: Q04DX003 (ip), vehicle: saline with Tween-80
[6] = dose: 200.0 mg/kg/injection, schedule: Q01DX009 (ip), vehicle: saline with Tween-80
[7] = dose: 200.0 mg/kg/injection, schedule: Q04DX003 (ip), vehicle: saline with Tween-80
[8] = dose: 400.0 mg/kg/injection, schedule: Q04DX003 (ip), vehicle: saline with Tween-80
[9] = dose: 100.0 mg/kg/injection, schedule: Q01DX009 (ip), vehicle: Klucel (hydroxypropylcellulose) (HPC)
[10] = dose: 200.0 mg/kg/injection, schedule: Q01DX009 (ip), vehicle: Klucel (hydroxypropylcellulose) (HPC)
[11] = dose: 400.0 mg/kg/injection, schedule: Q01DX009 (ip), vehicle: Klucel (hydroxypropylcellulose) (HPC)
[12] = dose: 25.0 mg/kg/injection, schedule: Q04DX003 (ip), vehicle: saline with Tween-80
[13] = dose: 50.0 mg/kg/injection, schedule: Q01DX009 (ip), vehicle: saline

CCCCN(CCCC)CC(O)c1cc(-c2ccc(Cl)c(Cl)c2)cc2cc(Cl)ccc12 (configuration not stated)
T/C (dose: 12.5 mg/kg/injection, schedule: Q01DX009 (ip), vehicle: saline with Tween-80): 99 % of control
T/C [1]: 99 % of control
T/C [2]: 92 % of control and 97 % of control

CC(C)(Br)C(=O)c1ccco1
T/C [1]: 109 % of control
T/C [2]: 113 % of control
T/C [3]: 113 % of control

NC(=S)S/C=C/C(=O)O
T/C [2]: 96 % of control
T/C [4]: 100 % of control
T/C [3]: 94 % of control
T/C [5]: 107 % of control
T/C [6]: 100 % of control
T/C [7]: 103 % of control
T/C [8]: 115 % of control

Nc1ccc(C(=O)Nc2ccc(Nc3ccncc3)cc2)cc1
T/C [9]: 109 % of control
T/C (dose: 100.0 mg/kg/injection, schedule: Q04DX003 (ip), vehicle: Klucel (hydroxypropylcellulose) (HPC)): 104 % of control
T/C [10]: 118 % of control
T/C (dose: 200.0 mg/kg/injection, schedule: Q04DX003 (ip), vehicle: Klucel (hydroxypropylcellulose) (HPC)): 104 % of control
T/C [11]: 118 % of control
T/C (dose: 400.0 mg/kg/injection, schedule: Q04DX003 (ip), vehicle: Klucel (hydroxypropylcellulose) (HPC)): 100 % of control

CN(C)CCOc1cccc(OCCN(C)C)n1
T/C [1]: 100 % of control
T/C [12]: 87 % of control
T/C [2]: 95 % of control
T/C [4]: 91 % of control

COc1ccc2c3c(c4cc(OC)c(OC)cc4c2c1)C[C@H]1CCCCN1C3
T/C (dose: 0.25 mg/kg/injection, schedule: Q01DX010 (ip), vehicle: saline): 100 % of control
T/C (dose: 0.5 mg/kg/injection, schedule: Q01DX010 (ip), vehicle: saline): 120 % of control
T/C (dose: 1.0 mg/kg/injection, schedule: Q01DX010 (ip), vehicle: saline): 120 % of control
T/C (dose: 2.0 mg/kg/injection, schedule: Q01DX010 (ip), vehicle: saline): 91 % of control

C[N+](C)(C)CN1C(=O)c2ccccc2C1=O
T/C [13]: 87 % of control
T/C (dose: 100.0 mg/kg/injection, schedule: Q01DX009 (ip), vehicle: saline): 100 % of control

Cc1ccc(C[P+](c2ccccc2)(c2ccccc2)c2ccccc2)cc1
T/C (dose: 2.5 mg/kg/injection, schedule: Q01DX010 (ip), vehicle: saline): 114 % of control
T/C (dose: 5.0 mg/kg/injection, schedule: Q01DX010 (ip), vehicle: saline): 114 % of control
T/C (dose: 10.0 mg/kg/injection, schedule: Q01DX010 (ip), vehicle: saline): 104 % of control

CC[C@](C)(O)C(=O)O[C@H]1C(=O)O[C@@H]2C[C@H]3C(C)=CC(=O)[C@@H](O)[C@]3(C)[C@H]3[C@@]4(O)OC[C@]32[C@@H]1[C@@H](C)[C@H]4O
T/C (dose: 0.06 mg/kg/injection, schedule: Q01DX009 (ip), vehicle: saline with Tween-80): 100 % of control
T/C (dose: 0.07 mg/kg/injection, schedule: Q01DX010 (ip), vehicle: saline): 105 % of control
T/C (dose: 0.12 mg/kg/injection, schedule: Q01DX009 (ip), vehicle: saline with Tween-80): 100 % of control
T/C (dose: 0.12 mg/kg/injection, schedule: Q01DX009 (ip), vehicle: saline): 100 % of control
T/C (dose: 0.15 mg/kg/injection, schedule: Q01DX010 (ip), vehicle: saline): 95 % of control
T/C (dose: 0.2 mg/kg/injection, schedule: Q01DX010 (ip), vehicle: saline): 100 % of control
T/C (dose: 0.25 mg/kg/injection, schedule: Q01DX009 (ip), vehicle: saline): 108 % of control
T/C (dose: 0.25 mg/kg/injection, schedule: Q01DX010 (ip), vehicle: steriod suspending solution): 177 % of control
T/C (dose: 0.3 mg/kg/injection, schedule: Q01DX010 (ip), vehicle: saline): 109 % of control and 110 % of control
T/C (dose: 0.44 mg/kg/injection, schedule: Q01DX010 (ip), vehicle: saline): 104 % of control
T/C (dose: 0.5 mg/kg/injection, schedule: Q01DX009 (ip), vehicle: saline): 104 % of control
T/C (dose: 0.5 mg/kg/injection, schedule: Q01DX010 (ip), vehicle: steriod suspending solution): 231 % of control
T/C (dose: 0.51 mg/kg/injection, schedule: Q01DX009 (ip), vehicle: saline with Tween-80): 161 % of control
T/C (dose: 0.6 mg/kg/injection, schedule: Q01DX010 (ip), vehicle: saline): 150 % of control
T/C (dose: 0.64 mg/kg/injection, schedule: Q01DX009 (ip), vehicle: saline with Tween-80): 171 % of control
T/C (dose: 0.66 mg/kg/injection, schedule: Q01DX010 (ip), vehicle: saline): 122 % of control
T/C (dose: 1.0 mg/kg/injection, schedule: Q01DX009 (ip), vehicle: saline + alcohol): 87 % of control

CC[P+](CC)(CC)CCCCI
T/C (dose: 6.25 mg/kg/injection, schedule: Q01DX009 (ip), vehicle: saline): 120 % of control
T/C (dose: 12.5 mg/kg/injection, schedule: Q01DX009 (ip), vehicle: saline): 123 % of control
T/C (dose: 25.0 mg/kg/injection, schedule: Q01DX009 (ip), vehicle: saline): 108 % of control and 120 % of control
T/C [13]: 99 % of control

N#CCCN1CCCCCC1
T/C (dose: 15.0 mg/kg/injection, schedule: Q01DX009 (ip), vehicle: saline with Tween-80): 104 % of control
T/C (dose: 30.0 mg/kg/injection, schedule: Q01DX009 (ip), vehicle: saline with Tween-80): 89 % of control
T/C (dose: 60.0 mg/kg/injection, schedule: Q01DX009 (ip), vehicle: saline with Tween-80): 98 % of control

O=C1C=C(N2CC2)c2ccccc2C1=O
T/C (dose: 2.5 mg/kg/injection, schedule: Q01DX009 (ip), vehicle: Klucel (hydroxypropylcellulose) (HPC)): 100 % of control
T/C (dose: 5.0 mg/kg/injection, schedule: Q01DX009 (ip), vehicle: Klucel (hydroxypropylcellulose) (HPC)): 90 % of control
T/C (dose: 10.0 mg/kg/injection, schedule: Q01DX009 (ip), vehicle: Klucel (hydroxypropylcellulose) (HPC)): 104 % of control
T/C (dose: 11.0 mg/kg/injection, schedule: Q04DX003 (ip), vehicle: saline with Tween-80): 109 % of control
T/C (dose: 16.5 mg/kg/injection, schedule: Q04DX003 (ip), vehicle: saline with Tween-80): 104 % of control
T/C (dose: 20.0 mg/kg/injection, schedule: Q01DX009 (ip), vehicle: Klucel (hydroxypropylcellulose) (HPC)): 104 % of control
T/C [12]: 118 % of control

CC1(C)/C(=C/c2ccccc2)C(=O)c2ccccc21
T/C (dose: 12.5 mg/kg/injection, schedule: Q04DX003 (ip), vehicle: saline): 107 % of control
T/C (dose: 25.0 mg/kg/injection, schedule: Q04DX003 (ip), vehicle: saline): 118 % of control
T/C (dose: 50.0 mg/kg/injection, schedule: Q04DX003 (ip), vehicle: saline): 91 % of control
T/C (dose: 100.0 mg/kg/injection, schedule: Q04DX003 (ip), vehicle: saline): 103 % of control and 121 % of control
T/C (dose: 200.0 mg/kg/injection, schedule: Q04DX003 (ip), vehicle: saline): 102 % of control and 112 % of control
T/C (dose: 400.0 mg/kg/injection, schedule: Q04DX003 (ip), vehicle: saline): 110 % of control

COc1cc2c(cc1O)C(=O)CCCC2
T/C [1]: 97 % of control
T/C [2]: 101 % of control and 120 % of control
T/C [9]: 103 % of control
T/C [3]: 97 % of control
T/C [5]: 100 % of control
T/C [10]: 103 % of control
T/C [7]: 104 % of control
T/C [11]: 103 % of control
T/C [8]: 95 % of control

COC(=S)Nc1ccc2c(c1)nc(-c1ccccc1)c1cc(NC(=S)OC)ccc12
T/C (dose: 100.0 mg/kg/injection, schedule: Q04DX002 (ip), vehicle: saline with Tween-80): 101 % of control
T/C (dose: 200.0 mg/kg/injection, schedule: Q04DX002 (ip), vehicle: saline with Tween-80): 101 % of control
T/C (dose: 400.0 mg/kg/injection, schedule: Q04DX002 (ip), vehicle: saline with Tween-80): 90 % of control

COc1ccc(CCN2COc3ccc4ccc(=O)oc4c3C2)cc1OC
T/C (dose: 132.0 mg/kg/injection, schedule: Q01DX009 (ip), vehicle: saline with Tween-80): 100 % of control
T/C [6]: 115 % of control
T/C (dose: 300.0 mg/kg/injection, schedule: Q01DX009 (ip), vehicle: saline with Tween-80): 115 % of control

CCCCCCN(CCCCCC)P(=O)(N1CC1)N1CC1
T/C (dose: 14.0 mg/kg/injection, schedule: Q04DX003 (ip), vehicle: saline): 95 % of control
T/C (dose: 21.0 mg/kg/injection, schedule: Q04DX003 (ip), vehicle: saline): 104 % of control
T/C (dose: 33.0 mg/kg/injection, schedule: Q04DX003 (ip), vehicle: saline with Tween-80): 100 % of control and 118 % of control
T/C [4]: 150 % of control
T/C (dose: 75.0 mg/kg/injection, schedule: Q04DX003 (ip), vehicle: saline with Tween-80): 181 % of control

O=C1Oc2ccccc2C(=O)/C1=C1\SSC(c2ccccc2)=C1c1ccccc1
T/C [2]: 99 % of control
T/C [3]: 96 % of control
T/C [6]: 96 % of control
